Assay [1] relates to Fish (Trout) fish eggs contaminated with various pathogens.
The subject of assay [2] is Fungi of the Saprolegnia spp. The assay is described as follows: Time to inactivation of Saprolegnia fungi (Example 15). The format is cell-based. More on the design: key: —: No antimicrobial activity. The method, then: Fungi in the amount of 10e8 cells were added to 1.0 ml of a solution of the test substance and after incubation were washed by PBS with centrifugation, resuspended in buffer, and plated on potato agar to assess survival.

Assay [3] has as its system Wheat seeds (Triticum aestivum L.). In words: Wheat growth under stress conditions (18° C.) after seed soaking (Example 2). The format is in vivo. The note with it: seeds soaked 1 hour at 37° C., 100 μg/ml, cultivation 18° C.; for Root length (cm) / Shoot length (cm): after 5 days. The method, then: The cultivation temperature was 18° C., instead of the required 23° C. The assessment of the state of the plants was carried out after 5 days (table 2).

In assay [4] the test system is wheat. The assay is described as follows: Wheat growth after seed treatment with reverse transcription, integration and protease inhibitors (Example 4). The format is in vivo. The conditions noted are these: seeds treated 1 hour at 37° C.; cultivation 23° C.
Assay [5] deals with Wheat seeds (Triticum aestivum L.). In words: Wheat seed germination on potato dextrose agar after soaking in products (Example 1). The format is in vivo. The note with it: seeds soaked 1 hour; nucleases 100 μg/ml at 37° C., M4 group products 0.5%. From the text: Wheat seeds (Triticum aestivum L., healthy, not infected) were washed with water with soap, then without soap. […] Then the seeds (8 pieces) were laid out on potato dextrose agar (https://himedialabs.com/TD/M096.pdf). Treatment with test products.

In assay [6] the test system is wheat. The assay is described as follows: Regulation of wheat development after seed treatment (Example 3). The format is in vivo. The note with it: seeds treated 1 hour at 37° C.; cultivation 23° C. The method, then:
Plant: wheat. Treatment: The wheat seeds were treated with various nucleases or products of the M4 group for 1 hour, at 37° C. […] Cultivation temperature 23° C.

In assay [7] the test system is wheat. In words: Wheat growth after seed treatment with complexes of inhibitors and nucleases (Example 5). The note with it: seeds treated 1 hour at 37° C.; cultivation 23° C. The format is in vivo. The method, then:
Plant: wheat Treatment: The seeds were treated with various products for 1 hour, at 37° C. […] Cultivation temperature 23° C.

Assay [8] relates to Red Turkish Carnation Seeds. The assay is described as follows: Full cycle of plant growth after seed treatment with nucleases (Example 12). The format is in vivo. The conditions noted are these: seeds incubated with 100 μg/ml at 37° C. for 60 minutes.
Assay [9] relates to wheat. The note with it: in vivo.
The test system of assay [10] is wheat. In words: Wheat growth after one-time watering with products (Example 7). More on the design: Shoot length / Root length: unit not given here. The format is in vivo. The note with it: one-time watering 1000 μg/ml, 200 ml for 20 grains; day 5.
In assay [11] the test system is patients with seborrheic dermatitis. The assay is described as follows: Treatment of seborrheic dermatitis (Example 23). The format is in vivo, human. The note with it: excipient alone, regimen not given; assessed within 14 days. How it is done:
The efficacy of the drugs was assessed within 14 days, using objective and subjective measures (the prevalence of the disease, the degree of inflammation and infiltration of skin elements, the severity of itching, peeling and crusting). Dermatoscopy was done using the Heine, mini 3000 LED.

Several values for one entry are separate records, joined by “and”; a condition that tells them apart may be missing. Equal values may be shown once. Read-outs that look alike come from different tables or passages of the source.

For the compound `CN(C)c1ccc(C(=C2C=CC(=[N+](C)C)C=C2)c2ccccc2)cc1` [Malachite green], in assay [1], the Growth after plating result is “Lawn”.

For `OC[C@@H](O)[C@@H](O)[C@H](O)[C@H](O)CO` [Mannit (0.01%), Mannitol], the “Time (minutes) to reach 100% inactivation” value in assay [2] (0.005%), in assay [2] (0.01%), in [2] (0.05%), in assay [2] (0.1%) and in [2] (0.5%) was “—” throughout.

Regarding `COc1cc2c(cc1Cc1cccc(Cl)c1F)c(=O)c(C(=O)O)cn2[C@H](CO)C(C)C` [Elvitegravir], in assay [3], the “Emergence at day 5” value is on record as 65%, the “Root length (cm)” value worked out at 2.6 cm and the “Shoot length (cm)” value was 9.9 cm.

Regarding `Nc1ccn([C@@H]2CS[C@H](CO)O2)c(=O)n1` [Lamivudine], in assay [4], the “Chlorophyll total” value is given as 54.3 mg/g, the “Emergence (%)” value was found to be 55%, the “Root lenght (median)” value was 9 and the “Shoot length (median)” value came to 13.

On to `C[C@H](Cn1cnc2c(N)ncnc21)OCP(=O)(O)O` [Tenofovir], for which, in assay [4], the “Chlorophyll total” value came to 57.7 mg/g, the “Emergence (%)” value is 45%, the “Root lenght (median)” value is on record as 9 and the “Shoot length (median)” value is reported as 14.

For `Cc1ccnc2c1NC(=O)c1cccnc1N2C1CC1` [Nevirapine], in assay [4], the “Chlorophyll total” value came out at 52.9 mg/g, the “Emergence (%)” value is given as 25%, the “Root lenght (median)” value came out at 0 and the “Shoot length (median)” value came out at 0.

On to `CN(C)c1ccc2nc3ccc(=[N+](C)C)cc-3sc2c1` [Methylene blue], for which the Growth after plating entry in [1] is given as “Lawn”.

For DNAse, in [5], the “Germination (%) at day 5 Day 3” value is listed as 75% and the “Median shoot length (mm) Day 3” value is 24.6 mm. Besides, in assay [3], the “Emergence at day 5” value came out at 64%, the “Root length (cm)” value is given as 2.1 cm and the “Shoot length (cm)” value stood at 6.9 cm. Besides, in assay [6], the Chlorophyll total was determined as 49.1, the “Emergence (%)” value is 67%, the “Leaf length (cm)” value amounted to 2.8 cm and the “Leaf width (cm)” value is 1.4 cm. In assay [6], the Number of leaves was 2 + 1, the “Root length (cm)” value worked out at 15.2 cm, the “Shoot length (cm)” value worked out at 5.8 cm and the “Weight” value was found to be 0.6 g. Further, in [7], the “Chlorophyll total” value came out at 24.7 mg/g, the “Emergence (%)” value was 73%, the Root lenght turned out to be 3.6 and the Shoot length is reported as 5.2. Also, in assay [8], the Emergence (%) is recorded as 95%, the “Height on day 99” value is reported as 7+/−1, the “Root branching at 99 days (words in the root length cell)” value is given as “branched” and the “Root length at 99 days” value is recorded as 7+/−0.5. For the same compound, in [8], the “The appearance of the first leaves” value turned out to be 5th day, the “The beginning of flowering” value turned out to be 183 days, the “The emergence of the buds” value is 174 days and the “Weight of seeds on day 258/12 plants” value stood at 0.24 g.

For the compound `Cc1nnc(C(=O)NC(C)(C)c2nc(C(=O)NCc3ccc(F)cc3)c(O)c(=O)n2C)o1` [Raltegravir], in assay [3], the “Emergence at day 5” value worked out at 71%, the “Root length (cm)” value was found to be 2.6 cm and the “Shoot length (cm)” value came to 9.8 cm. Besides, in [4], the “Chlorophyll total” value is 56.9 mg/g, the “Emergence (%)” value came to 60%, the “Root lenght (median)” value stood at 8 and the “Shoot length (median)” value came out at 12. For the same compound, in assay [7], the “Chlorophyll total” value came to 25.9 mg/g, the “Emergence (%)” value was 42%, the Root lenght stood at 1.9 and the Shoot length turned out to be 5.7.

In the case of `Cc1cc(C#N)cc(C)c1Oc1nc(Nc2ccc(C#N)cc2)nc(N)c1Br` [Etravirine], in [4], the “Chlorophyll total” value worked out at 58.7 mg/g, the “Emergence (%)” value is 55%, the “Root lenght (median)” value was 9 and the “Shoot length (median)” value came out at 13. For the same compound, in [7], the “Chlorophyll total” value is given as 25.0 mg/g, the “Emergence (%)” value was found to be 75%, the Root lenght was 5.5 and the Shoot length is on record as 7.4.

As for Trypsin, in [7], the “Chlorophyll total” value is recorded as 30.3 mg/g, the “Emergence (%)” value is 49%, the Root lenght worked out at 5.8 and the Shoot length is given as 2.5.

`O=P([O-])([O-])O.[Na+].[Na+]` [Na2HPO4 (0.01%), Na2HPO4]: in assay [9], the “Root length (cm)” value is 7.7 cm and 5.9 cm. In addition, in [9], the “Seedling length (cm)” value was 8.4 cm and 6.1 cm. Further, the “Time (minutes) to reach 100% inactivation” value in assay [2] (0.005%), in [2] (0.01%), in [2] (0.05%), in assay [2] (0.1%) and in assay [2] (0.5%) was “—” each time.

On to `Nc1nc(NC2CC2)c2ncn([C@H]3C=C[C@@H](CO)C3)c2n1` [Abacavir], for which, in assay [4], the “Chlorophyll total” value is on record as 51.8 mg/g, the “Emergence (%)” value is 50%, the “Root lenght (median)” value was determined as 11 and the “Shoot length (median)” value is 13.

Regarding `[H]/N=C(\N/C(=N/[H])NCCCCCCNC(=N)NC(=N)Nc1ccc(Cl)cc1)Nc1ccc(Cl)cc1` [Chlorhexidine], in assay [5], the “Germination (%) at day 5 Day 3” value is 54% and the “Median shoot length (mm) Day 3” value is recorded as 14.6 mm. Besides, in assay [3], the “Emergence at day 5” value stood at 53%, the “Root length (cm)” value is given as 1.9 cm and the “Shoot length (cm)” value was found to be 6.3 cm. Moreover, in assay [10], the “Emergence (%)” value was found to be 50%, the Root length was found to be 3.6 and the Shoot length is 6.9.

As for `O=S(=O)([O-])[O-].[Zn+2]` [ZnSO4 0.01%, ZnSO4], the “Root length (cm)” value in assay [9] was 5.7 cm and 7.1 cm. Also, the “Seedling length (cm)” value in [9] is 6.1 cm and 8.0 cm. The “Time (minutes) to reach 100% inactivation” value in assay [2] (0.005%) is “—”; in assay [2] (0.01%) it was “—”; in [2] (0.05%) it was “—”; in assay [2] (0.1%) it was “—”; in [2] (0.5%) it was “—*”. The “Day at which prevalence of the symptoms was reduced by 80%” value in [11] is >14 days.

The record behind these values is patent US20240180855A1, “BIOACTIVE PRODUCTS” (priority 2021, published 2024).
